We go through 33 compounds from patent publication US9834548B2, “Pyridazine compounds as JAK inhibitors” (Portola Pharmaceuticals, Inc., priority 2014, dated 2017).

What all share (format): biochemical
For one assay, the target named is JAK1 (Homo sapiens (Human), UniProt P23458). Description: Purified kinase assay (Z'-LYTE), JAK1. The following applies: Table 1; read-out: JAK1 IC50. How it is done:
(§1) JAK and TYK2 tyrosine phosphorylation activity is measured using the Z′-LYTE™ Technology developed by Invitrogen Corporation (Carlsbad, Calif.). For JAK1, JAK2 and JAK3 the Z′-LYTE™ Kinase Assay Kit-Tyr6 Peptide (part number PV4122) was used. For TYK2 the Z′-LYTE™ Kinase Assay Kit-Tyr6 Peptide (part number PV3192) was used. The Z′-LYTE™ biochemical assay employs a fluorescence resonance energy transfer (FRET) coupled-enzyme format and is based on the differential sensitivity of phosphorylated and non-phosphorylated peptides to proteolytic cleavage. The assay uses a synthetic peptide substrate that is labeled with a donor fluorophore (coumarin) and an acceptor fluorophore (fluorescein) that make up a FRET pair. In the primary reaction (the Kinase Reaction), the kinase transfers the γ-phosphate of ATP to a single tyrosine residue on the substrate, while the presence of a kinase inhibitor in the primary reaction suppresses phosphorylation. In the secondary reaction (the Development Reaction), a site-specific protease (the Development Reagent) is added. The development buffer quenches the Kinase Reaction, while the protease recognizes and cleaves non-phosphorylated Z′-LYTE™ peptide substrate. Cleavage disrupts FRET between the donor and acceptor fluorophores on the non-phosphorylated substrate, while uncleaved, phosphorylated substrate maintains FRET.
(§2) To test the ability of candidate molecules to inhibit JAK tyrosine phosphorylation activity, molecules are reconstituted in 100% DMSO and serially diluted 1:10 in polypropylene v-bottom microtiter plates. The candidate molecules are then diluted 1:25 into kinase buffer and 2.5 μl transferred into duplicate wells of a 384 well low volume black microtiter assay plate (Corning, USA). The final DMSO concentration in the assay is 1%. The kinase reaction contains 2.5 μl of a candidate molecule, 5 μl of catalytic domain recombinant Kinase enzyme+Tyr peptide substrate (Invitrogen, CA) and ATP (Invitrogen, CA). The kinase reaction is allowed to proceed for 1 hour at room temperature. The protease reaction is initiated by the addition of Development Reagent (Invitrogen, CA). After 1 hour incubation at room temperature the fluorescence is measured using a FlexStation plate reader (Molecular Devices, Sunnyvale, Calif.). The reader settings used are as follows: Fluorescence mode, endpoint, top read, excitation 400 nm, emission 445 nm and 520 nm, Auto Cutoff 435 nm and 515 nm, PMT sensitivity high, 6 reads per well Inhibition of JAK activity is calculated as the percent phosphorylation of substrate in the presence of inhibitor compared to the percent phosphorylation of substrate in the absence of inhibitor. IC50's were derived using Xlfit 4.3 (IDBS, UK), 4 parameter logistic model 205: Y=(A+((B−A)/(1+((C/x)^D)))).

The target of another assay is JAK2 (Homo sapiens (Human), UniProt O60674). Briefly: Purified kinase assay (Z'-LYTE), JAK2. The settings on record: Table 1; read-out: JAK2 IC50. The protocol:
as §1, §2

Another assay has as its target JAK3 (Homo sapiens (Human), UniProt P52333). Briefly: Purified kinase assay (Z'-LYTE), JAK3. The following applies: Table 1; read-out: JAK3 IC50. The protocol: as §1, §2

Structures are written as SMILES.

JAK1, sequence (P23458 875-1153): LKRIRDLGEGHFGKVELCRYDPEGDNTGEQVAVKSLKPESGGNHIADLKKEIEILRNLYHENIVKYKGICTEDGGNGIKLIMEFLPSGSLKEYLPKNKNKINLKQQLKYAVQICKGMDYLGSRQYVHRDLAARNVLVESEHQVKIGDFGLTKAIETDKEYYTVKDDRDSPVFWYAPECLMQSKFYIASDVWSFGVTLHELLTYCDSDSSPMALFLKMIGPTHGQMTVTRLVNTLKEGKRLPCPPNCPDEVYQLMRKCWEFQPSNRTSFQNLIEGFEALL
JAK2, sequence (O60674 849-1124): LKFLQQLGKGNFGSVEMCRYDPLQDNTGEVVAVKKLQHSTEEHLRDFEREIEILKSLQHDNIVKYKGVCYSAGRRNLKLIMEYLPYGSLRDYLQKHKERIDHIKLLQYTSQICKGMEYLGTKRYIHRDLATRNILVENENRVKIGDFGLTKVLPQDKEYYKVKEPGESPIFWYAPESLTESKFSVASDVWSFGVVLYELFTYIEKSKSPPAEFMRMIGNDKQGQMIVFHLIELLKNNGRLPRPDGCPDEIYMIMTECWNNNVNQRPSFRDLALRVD
JAK3, sequence (P52333 822-1111): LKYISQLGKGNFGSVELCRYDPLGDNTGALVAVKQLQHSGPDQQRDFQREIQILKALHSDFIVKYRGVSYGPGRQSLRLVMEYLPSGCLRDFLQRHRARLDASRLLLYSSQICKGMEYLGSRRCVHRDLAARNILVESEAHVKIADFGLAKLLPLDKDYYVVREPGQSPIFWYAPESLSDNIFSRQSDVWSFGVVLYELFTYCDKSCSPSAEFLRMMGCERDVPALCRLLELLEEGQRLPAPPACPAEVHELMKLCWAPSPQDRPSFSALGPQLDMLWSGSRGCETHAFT

As to `NC(=O)c1nnc(Nc2ccc(N3CCNCC3)nc2)cc1NCc1cccc(F)c1` [Compound 50], the IC50 was above 1000 nM on JAK1, above 1000 nM on JAK2 and 100 to 1000 nM at JAK3.

On to `CS(=O)(=O)Cc1ccc(Nc2cc(NCc3cc(F)ccc3F)c(C(N)=O)nn2)cc1` [Compound 88], for which the results for the half-inhibitory concentration (IC50) at JAK1, on JAK2 and at JAK3 were 100 to 1000 nM, 100 to 1000 nM and 1 to 10 nM, respectively.

For the compound `CCC(=O)N1CCN(c2ccc(Nc3cc(NCc4cc(F)cc(F)c4)c(C(N)=O)nn3)cc2)CC1` [Compound 31], the values for the IC50 on JAK1, at JAK2 and on JAK3 were above 1000 nM, 100 to 1000 nM and 1 to 10 nM, respectively.

In the case of `NC(=O)c1nnc(Nc2ccc(N3CCOCC3)cc2)cc1NCc1cccc(F)c1F` [Compound 38], the IC50 on JAK1 is above 1000 nM; on JAK2, 100 to 1000 nM; at JAK3, 10 to 100 nM.

`CCn1cc(Nc2cc(NCc3cccc(F)c3F)c(C(N)=O)nn2)cn1` [Compound 120]: the values for the IC50 at JAK1, on JAK2 and at JAK3 were above 1000 nM, 100 to 1000 nM and 10 to 100 nM, respectively.

For `CCC(=O)N1CCN(c2ccc(Nc3cc(NCc4cccc(F)c4)c(C(N)=O)nn3)cc2)CC1` [Compound 30], the IC50 at JAK1 is above 1000 nM; on JAK2 it was 100 to 1000 nM; at JAK3, 10 to 100 nM.

In the case of `NC(=O)c1nnc(Nc2ccc(N3CCOCC3)cc2)cc1NCc1cc(F)cc(F)c1` [Compound 36], the IC50 at JAK1 was above 1000 nM; on JAK2 it was 100 to 1000 nM; on JAK3, 10 to 100 nM.

Consider `COc1ccccc1CNc1cc(Nc2ccc(N3CCN(C(C)=O)CC3)cc2)nnc1C(N)=O` [Compound 24], for which the IC50 lay in the range of 100 to 1000 nM at JAK1, 10 to 100 nM on JAK2 and 10 to 100 nM on JAK3.

As for `COc1cc(Nc2cc(NCc3cccc(F)c3)c(C(N)=O)nn2)ccc1C(=O)N1CCCC1` [Compound 53], the IC50 on JAK1 is above 1000 nM; on JAK2 it was 100 to 1000 nM; on JAK3 it was 10 to 100 nM.

Regarding `CC(=O)N1CCN(c2ccc(Nc3cc(NC(C)C)c(C(N)=O)nn3)cc2)CC1` [Compound 9], the IC50 at JAK1, at JAK2 and on JAK3 was above 1000 nM throughout.

With `CC(=O)N1CCN(c2ccc(Nc3cc(NC4CCN(c5ccc(C#N)cn5)CC4)c(C(N)=O)nn3)cc2)CC1` [Compound 92], the IC50 on JAK1, at JAK2 and on JAK3 was 10 to 100 nM each time.

For `CS(=O)(=O)c1ccc(Nc2cc(NCc3cccc(F)c3)c(C(N)=O)nn2)cc1` [Compound 84], the IC50 on JAK1 is above 1000 nM; on JAK2, above 1000 nM; at JAK3 it was 100 to 1000 nM.

Consider `CC(=O)N1CCN(C(=O)c2ccc(Nc3cc(NCc4cccc(F)c4)c(C(N)=O)nn3)cc2)CC1` [Compound 81], for which the IC50 on JAK1 was above 1000 nM; at JAK2, 100 to 1000 nM; at JAK3, 10 to 100 nM.

In the case of `CN(C)C(=O)C1CCN(c2ccc(Nc3cc(NCc4ccccc4F)c(C(N)=O)nn3)cc2)CC1` [Compound 86], the figures for the IC50 on JAK1, on JAK2 and at JAK3 were above 1000 nM, 100 to 1000 nM and 10 to 100 nM, respectively.

Consider `N#Cc1ccc(N2CCC(Nc3cc(Nc4cnccn4)nnc3C(N)=O)CC2)nc1` [Compound 97], for which the IC50 on JAK1, at JAK2 and at JAK3 was 1 to 10 nM each time.

As to `CC(=O)N1CCN(c2ccc(Nc3cc(N[C@H](C)C(C)C)c(C(N)=O)nn3)cc2)CC1` [Compound 75], the IC50 at JAK1 lay within 100 to 1000 nM; on JAK2, 10 to 100 nM; on JAK3, 10 to 100 nM.

Regarding `Cn1ccc(Nc2cc(NCc3cccc(F)c3)c(C(N)=O)nn2)n1` [Compound 67], the IC50 at JAK1 was above 1000 nM; on JAK2, 100 to 1000 nM; on JAK3, 10 to 100 nM.

For the compound `CC(=O)N1CCN(c2ccc(Nc3cc(NCc4ccccc4F)c(C(N)=O)nn3)nc2)CC1` [Compound 28], the IC50 at JAK1 is 100 to 1000 nM; on JAK2, 10 to 100 nM; on JAK3 it was 1 to 10 nM.

As for `CCC(=O)N1CCC(Cn2cc(Nc3cc(NCc4cccc(F)c4)c(C(N)=O)nn3)cn2)CC1` [Compound 130], the IC50 on JAK1 was above 1000 nM; on JAK2, 100 to 1000 nM; on JAK3, 10 to 100 nM.

Take `NC(=O)c1nnc(Nc2cc(F)c(N3CCOCC3)c(F)c2)cc1NCc1cccc(F)c1F` [Compound 41]: the IC50 at JAK1, at JAK2 and on JAK3 was above 1000 nM each time.

For the compound `CC(C)CNc1cc(Nc2ccc(N3CCNCC3)cc2)nnc1C(N)=O` [Compound 15], the IC50 on JAK1 was above 1000 nM; on JAK2 it was above 1000 nM; at JAK3, 100 to 1000 nM.

For `CS(=O)(=O)CCc1ccc(Nc2cc(NCc3cccc(F)c3)c(C(N)=O)nn2)cc1` [Compound 108], the IC50 at JAK1 is above 1000 nM; at JAK2, 100 to 1000 nM; at JAK3 it was 10 to 100 nM.

`CC(C)n1cc(Nc2cc(NCc3cccc4ccsc34)c(C(N)=O)nn2)cn1` [Compound 112]: the IC50 fell in the range of 100 to 1000 nM on JAK1, 10 to 100 nM at JAK2 and 1 to 10 nM on JAK3.

Regarding `CCC(=O)N1CCC(c2ccc(Nc3cc(NCc4cccc(F)c4)c(C(N)=O)nn3)cc2)CC1` [Compound 26], the figures for the IC50 on JAK1, on JAK2 and at JAK3 were above 1000 nM, above 1000 nM and 10 to 100 nM, respectively.

As for `NC(=O)c1nnc(Nc2cnn(C3CCCC3)c2)cc1NCc1cccc2ccsc12` [Compound 115], the IC50 is above 1000 nM on JAK1, 10 to 100 nM at JAK2 and 10 to 100 nM at JAK3.

Take `CC(=O)N1CCN(c2ccc(Nc3cc(NCc4cccc(F)c4)c(C(N)=O)nn3)cn2)CC1` [Compound 49]: the IC50 at JAK1 is above 1000 nM; on JAK2, above 1000 nM; at JAK3 it was 100 to 1000 nM.

As to `CC(C)n1cc(Nc2cc(NCc3c(F)cccc3F)c(C(N)=O)nn2)cn1` [Compound 113], the values for the IC50 on JAK1, at JAK2 and at JAK3 were 100 to 1000 nM, 10 to 100 nM and 1 to 10 nM, respectively.

Turning to `C[S+]([O-])Cc1ccc(Nc2cc(NCc3cccc(F)c3)c(C(N)=O)nn2)cc1` (stereo not drawn) [Compound 105], the IC50 is 100 to 1000 nM at JAK1, 100 to 1000 nM at JAK2 and 10 to 100 nM at JAK3.

For `CS(=O)(=O)Cc1cccc(Nc2cc(NCc3cccc(F)c3)c(C(N)=O)nn2)c1` [Compound 91], the figures for the IC50 on JAK1, at JAK2 and at JAK3 were above 1000 nM, above 1000 nM and 10 to 100 nM, respectively.

Consider `NC(=O)c1nnc(Nc2cnn(CC3CC3)c2)cc1NCc1cccc(F)c1F` [Compound 118], for which the figures for the IC50 on JAK1, at JAK2 and on JAK3 were 100 to 1000 nM, 100 to 1000 nM and 10 to 100 nM, respectively.

For `NC(=O)c1nnc(Nc2ccc(C(=O)N3CCOCC3)cc2)cc1NCc1cccc(F)c1` [Compound 80], the IC50 at JAK1 is above 1000 nM; on JAK2, 100 to 1000 nM; on JAK3, 10 to 100 nM.

With `NC(=O)c1nnc(Nc2ccc(N3CCNCC3)cc2)cc1NC1CCCCC1` [Compound 11, 4-(cyclohexylamino)-6-((4-(piperazin-1-yl)phenyl)amino)pyridazine-3-carboxamide], the IC50 on JAK1 was above 1000 nM; at JAK2, 100 to 1000 nM; at JAK3, 100 to 1000 nM.

As for `CC(=O)N1CCN(c2ccc(Nc3cc(NCC(C)C)c(C(N)=O)nn3)cc2)CC1` [Compound 14], the values for the IC50 on JAK1, on JAK2 and on JAK3 were above 1000 nM, 100 to 1000 nM and 100 to 1000 nM, respectively.
